Like-named read-outs stand apart in the source and are kept apart here. Square brackets hold non-standard residues; d marks the D form. Peptide text beside a SMILES is read from it.
Tests used:
[1] = tested on: Enterobacter cloacae clinical strains; assay type: cell-based; design: Minimum inhibitory concentration: unit: μg/ml; settings: microdilution, Muller Hinton broth-cation adjusted, 0.02% BSA, 0.2% acetic acid
Method in brief: (§1)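 MIC = lowest concentration without visual growth after 20–24 h at 37° C. Microbroth dilution, 5.0×10^5 cfu/ml, 0.125–128 μg/ml range; MH broth for bacteria, potato dextrose broth for yeasts.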

[2] = tested on: Proteus mirabilis clinical strains; assay type: cell-based; design: Minimum inhibitory concentration: unit: μg/ml; settings: microdilution, Muller Hinton broth-cation adjusted, 0.02% BSA, 0.2% acetic acid
Method in brief: as §1

[3] = tested on: Serratia marcescens clinical strains; assay type: cell-based; design: Minimum inhibitory concentration: unit: μg/ml; settings: microdilution, Muller Hinton broth-cation adjusted, 0.02% BSA, 0.2% acetic acid
Method in brief: as §1

[4] = tested on: Staphylococcus aureus clinical strains; assay type: cell-based; design: Minimum inhibitory concentration: unit: μg/ml; settings: microdilution, Muller Hinton broth-cation adjusted, 0.02% BSA, 0.2% acetic acid
Method in brief: as §1

[5] = tested on: Streptococcus pneumoniae clinical strains; assay type: cell-based; design: Minimum inhibitory concentration: unit: μg/ml; settings: microdilution, Muller Hinton broth-cation adjusted, 0.02% BSA, 0.2% acetic acid
Method in brief: as §1

[6] = tested on: Candida albicans clinical strains; assay: MIC, clinical yeast strains; assay type: cell-based; design: unit: μg/ml
Method in brief: as §1

[7] = tested on: C. glabrata clinical strains; assay: MIC, clinical yeast strains; assay type: cell-based, Candida glabrata; design: unit: µg/ml
Method in brief: as §1

[8] = tested on: C. parapsilosis clinical strains; assay: MIC, clinical yeast strains; assay type: cell-based, Candida parapsilosis; design: unit: µg/ml
Method in brief: as §1

[9] = tested on: C. quillermondiae clinical strains; assay: MIC, clinical yeast strains; assay type: cell-based, Candida quillermondiae; design: unit: μg/ml; settings: C. quillermondiae clinical yeast strain 1
Method in brief: as §1

[10] = tested on: Escherichia coli clinical strains; assay type: cell-based; settings: microdilution, Muller Hinton broth-cation adjusted, 0.02% BSA, 0.2% acetic acid
Method in brief: as §1

[11] = tested on: Klebsiella pneumoniae clinical strains; assay type: cell-based; settings: microdilution, Muller Hinton broth-cation adjusted, 0.02% BSA, 0.2% acetic acid
Method in brief: as §1

[12] = tested on: Pseudomonas aeruginosa clinical strains; assay type: cell-based; settings: microdilution, Muller Hinton broth-cation adjusted, 0.02% BSA, 0.2% acetic acid
Method in brief: as §1

[13] = Enterobacter cloacae clinical strain 1
[14] = Enterobacter cloacae clinical strain 2
[15] = Enterobacter cloacae clinical strain 3
[16] = Enterobacter cloacae clinical strain 4
[17] = Enterobacter cloacae clinical strain 5
[18] = Proteus mirabilis clinical strain 1
[19] = Proteus mirabilis clinical strain 2
[20] = Proteus mirabilis clinical strain 3
[21] = Proteus mirabilis clinical strain 4
[22] = Proteus mirabilis clinical strain 5
[23] = Serratia marcescens clinical strain 1
[24] = Serratia marcescens clinical strain 2
[25] = Serratia marcescens clinical strain 3
[26] = Serratia marcescens clinical strain 4
[27] = Serratia marcescens clinical strain 5
[28] = Staphylococcus aureus clinical strain 1
[29] = Staphylococcus aureus clinical strain 2
[30] = Staphylococcus aureus clinical strain 3
[31] = Staphylococcus aureus clinical strain 4
[32] = Staphylococcus aureus clinical strain 5
[33] = Streptococcus pneumoniae clinical strain 1
[34] = Streptococcus pneumoniae clinical strain 2
[35] = Streptococcus pneumoniae clinical strain 3
[36] = Streptococcus pneumoniae clinical strain 4
[37] = Streptococcus pneumoniae clinical strain 5
[38] = Candida albicans clinical yeast strain 1
[39] = Candida albicans clinical yeast strain 2
[40] = Candida albicans clinical yeast strain 3
[41] = Candida albicans clinical yeast strain 4
[42] = Candida albicans clinical yeast strain 5
[43] = C. glabrata clinical yeast strain 1
[44] = C. glabrata clinical yeast strain 2
[45] = C. glabrata clinical yeast strain 3
[46] = C. glabrata clinical yeast strain 4
[47] = C. parapsilosis clinical yeast strain 1
[48] = C. parapsilosis clinical yeast strain 2
[49] = C. parapsilosis clinical yeast strain 3
[50] = C. parapsilosis clinical yeast strain 4
[51] = Escherichia coli clinical strain 1
[52] = Escherichia coli clinical strain 2
[53] = Escherichia coli clinical strain 3
[54] = Escherichia coli clinical strain 4
[55] = Escherichia coli clinical strain 5
[56] = Klebsiella pneumoniae clinical strain 1
[57] = Klebsiella pneumoniae clinical strain 2
[58] = Klebsiella pneumoniae clinical strain 3
[59] = Klebsiella pneumoniae clinical strain 4
[60] = Klebsiella pneumoniae clinical strain 5
[61] = Pseudomonas aeruginosa clinical strain 1
[62] = Pseudomonas aeruginosa clinical strain 2
[63] = Pseudomonas aeruginosa clinical strain 3
[64] = Pseudomonas aeruginosa clinical strain 4
[65] = Pseudomonas aeruginosa clinical strain 5

## CC(C)C[C@@H](NC(=O)[C@H](N)CCCCN)C(=O)N[C@H](CCCCN)C(=O)N[C@H](Cc1c[nH]c2ccccc12)C(=O)N[C@H](Cc1ccccc1)C(=O)N[C@H](Cc1c[nH]c2ccccc12)C(=O)N[C@H](CC(C)C)C(=O)N[C@H](Cc1ccccc1)C(=O)N[C@H](CCCCN)C(=O)N[C@H](CCCCN)C(=O)N[C@H](CCCNC(=N)N)C(=O)O [Chain311D] (H-[dK][dL][dK][dW][dF][dW][dL][dF][dK][dK][dR]-OH)
[1]; [13]
  Minimum inhibitory concentration: 4
[1]; [14]
  Minimum inhibitory concentration: 4
[1]; [15]
  Minimum inhibitory concentration: 4
[1]; [16]
  Minimum inhibitory concentration: 4
[1]; [17]
  Minimum inhibitory concentration: 2
[2]; [18]
  Minimum inhibitory concentration: >128
[2]; [19]
  Minimum inhibitory concentration: 128
[2]; [20]
  Minimum inhibitory concentration: 128
[2]; [21]
  Minimum inhibitory concentration: >128
[2]; [22]
  Minimum inhibitory concentration: >128
[3]; [23]
  Minimum inhibitory concentration: >128
[3]; [24]
  Minimum inhibitory concentration: >128
[3]; [25]
  Minimum inhibitory concentration: >128
[3]; [26]
  Minimum inhibitory concentration: >128
[3]; [27]
  Minimum inhibitory concentration: >128
[4]; [28]
  Minimum inhibitory concentration: 1
[4]; [29]
  Minimum inhibitory concentration: 1
[4]; [30]
  Minimum inhibitory concentration: 1
[4]; [31]
  Minimum inhibitory concentration: 1
[4]; [32]
  Minimum inhibitory concentration: 1
[5]; [33]
  Minimum inhibitory concentration: 16
[5]; [34]
  Minimum inhibitory concentration: 8
[5]; [35]
  Minimum inhibitory concentration: 16
[5]; [36]
  Minimum inhibitory concentration: 4
[5]; [37]
  Minimum inhibitory concentration: 8
[6]; [38]
  Minimum inhibitory concentration: 8
[6]; [39]
  Minimum inhibitory concentration: 8
[6]; [40]
  Minimum inhibitory concentration: 8
[6]; [41]
  Minimum inhibitory concentration: 16
[6]; [42]
  Minimum inhibitory concentration: 16
[7]; [43]
  Minimum inhibitory concentration: 16
[7]; [44]
  Minimum inhibitory concentration: 16
[7]; [45]
  Minimum inhibitory concentration: 8
[7]; [46]
  Minimum inhibitory concentration: 64
[8]; [47]
  Minimum inhibitory concentration: 16
[8]; [48]
  Minimum inhibitory concentration: 8
[8]; [49]
  Minimum inhibitory concentration: 8
[8]; [50]
  Minimum inhibitory concentration: 8
[9]
  Minimum inhibitory concentration: 4
[10]; [51]
  Minimum inhibitory concentration: 2
[10]; [52]
  Minimum inhibitory concentration: 2
[10]; [53]
  Minimum inhibitory concentration: 1
[10]; [54]
  Minimum inhibitory concentration: 0.5
[10]; [55]
  Minimum inhibitory concentration: 1
[11]; [56]
  Minimum inhibitory concentration: 8
[11]; [57]
  Minimum inhibitory concentration: 8
[11]; [58]
  Minimum inhibitory concentration: 4
[11]; [59]
  Minimum inhibitory concentration: 8
[11]; [60]
  Minimum inhibitory concentration: 4
[12]; [61]
  Minimum inhibitory concentration: 16
[12]; [62]
  Minimum inhibitory concentration: 8
[12]; [63]
  Minimum inhibitory concentration: 16
[12]; [64]
  Minimum inhibitory concentration: 8
[12]; [65]
  Minimum inhibitory concentration: 4

## CC(C)C[C@@H](NC(=O)[C@@H](Cc1c[nH]c2ccccc12)NC(=O)[C@@H](Cc1ccccc1)NC(=O)[C@@H](Cc1c[nH]c2ccccc12)NC(=O)[C@@H](CCCCN)NC(=O)[C@@H](CCCNC(=N)N)NC(=O)[C@H](N)Cc1c[nH]c2ccccc12)C(=O)N[C@H](Cc1ccccc1)C(=O)N[C@H](CCCCN)C(=O)N[C@H](CCCCN)C(=O)N[C@H](CCCNC(=N)N)C(=O)O [Chain309D] (H-[dW][dR][dK][dW][dF][dW][dL][dF][dK][dK][dR]-OH)
[1]; [13]
  Minimum inhibitory concentration: >128
[1]; [14]
  Minimum inhibitory concentration: 128
[1]; [15]
  Minimum inhibitory concentration: 64
[1]; [16]
  Minimum inhibitory concentration: 64
[1]; [17]
  Minimum inhibitory concentration: 32
[2]; [18]
  Minimum inhibitory concentration: >128
[2]; [19]
  Minimum inhibitory concentration: >128
[2]; [20]
  Minimum inhibitory concentration: >128
[2]; [21]
  Minimum inhibitory concentration: >128
[2]; [22]
  Minimum inhibitory concentration: >128
[3]; [23]
  Minimum inhibitory concentration: >128
[3]; [24]
  Minimum inhibitory concentration: >128
[3]; [25]
  Minimum inhibitory concentration: >128
[3]; [26]
  Minimum inhibitory concentration: >128
[3]; [27]
  Minimum inhibitory concentration: >128
[4]; [28]
  Minimum inhibitory concentration: 8
[4]; [29]
  Minimum inhibitory concentration: 16
[4]; [30]
  Minimum inhibitory concentration: 8
[4]; [31]
  Minimum inhibitory concentration: 8
[4]; [32]
  Minimum inhibitory concentration: 8
[5]; [33]
  Minimum inhibitory concentration: 64
[5]; [34]
  Minimum inhibitory concentration: 64
[5]; [35]
  Minimum inhibitory concentration: 64
[5]; [36]
  Minimum inhibitory concentration: 64
[5]; [37]
  Minimum inhibitory concentration: 64
[6]; [38]
  Minimum inhibitory concentration: 32
[6]; [39]
  Minimum inhibitory concentration: 32
[6]; [40]
  Minimum inhibitory concentration: 16
[6]; [41]
  Minimum inhibitory concentration: 16
[6]; [42]
  Minimum inhibitory concentration: 32
[7]; [43]
  Minimum inhibitory concentration: 32
[7]; [44]
  Minimum inhibitory concentration: 64
[7]; [45]
  Minimum inhibitory concentration: 4
[7]; [46]
  Minimum inhibitory concentration: 128
[8]; [47]
  Minimum inhibitory concentration: 64
[8]; [48]
  Minimum inhibitory concentration: 64
[8]; [49]
  Minimum inhibitory concentration: 32
[8]; [50]
  Minimum inhibitory concentration: 16
[9]
  Minimum inhibitory concentration: 8
[10]; [51]
  Minimum inhibitory concentration: 0.5
[10]; [52]
  Minimum inhibitory concentration: 32
[10]; [53]
  Minimum inhibitory concentration: 16
[10]; [54]
  Minimum inhibitory concentration: 32
[10]; [55]
  Minimum inhibitory concentration: 16
[11]; [56]
  Minimum inhibitory concentration: 128
[11]; [57]
  Minimum inhibitory concentration: 32
[11]; [58]
  Minimum inhibitory concentration: >128
[11]; [59]
  Minimum inhibitory concentration: 32
[11]; [60]
  Minimum inhibitory concentration: 128
[12]; [61]
  Minimum inhibitory concentration: 16
[12]; [62]
  Minimum inhibitory concentration: 32
[12]; [63]
  Minimum inhibitory concentration: 16
[12]; [64]
  Minimum inhibitory concentration: 32
[12]; [65]
  Minimum inhibitory concentration: 8
